Measured values published in patent publication US20110028509A1, “Sulfonamides” (MERCK SERONO SA, priority 2008, published 2011).

Columns and labels:
Type in all cases: cell-based
[1] = molecular target: T1, CXCR3 (Homo sapiens, UniProt P49682); assay: Chemotaxis assay IP10, L1.2 recombinant cells expressing hCXCR3; conditions: L1.2 hCXCR3 cells, IP10 around 0.3 nM, 4 hours
T1 sequence (P49682 1-368): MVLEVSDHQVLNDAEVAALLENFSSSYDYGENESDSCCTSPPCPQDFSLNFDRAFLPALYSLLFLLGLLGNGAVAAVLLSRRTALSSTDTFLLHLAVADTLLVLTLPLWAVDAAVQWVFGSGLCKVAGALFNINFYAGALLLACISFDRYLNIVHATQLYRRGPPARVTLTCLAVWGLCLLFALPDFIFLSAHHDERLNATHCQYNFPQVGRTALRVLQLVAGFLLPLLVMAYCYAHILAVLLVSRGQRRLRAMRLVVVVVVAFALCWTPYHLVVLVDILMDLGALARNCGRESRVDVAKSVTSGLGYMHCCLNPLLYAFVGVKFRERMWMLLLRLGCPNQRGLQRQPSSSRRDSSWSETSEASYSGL
Protocol: (§1) Human CXCR3 cDNA was amplified by PCR from a human cells cDNA library (Clontech) and subcloned into pcDNA3.1 (Invitrogen). Murine pre-B L1.2 cells were transfected with hCXCR3-pcDNA3.1 and were grown at 37° C., 5% CO2 in RPMI 1640 medium (Invitrogen, USA) supplemented with 5% heat inactivated fetal calf serum (Cancerra, Australia), 2 mM glutamine (Invitrogen), 50 units ml−1 penicillin, 50 μml−1 streptomycin. Stable transfectant clonal populations were selected using 800 μg/ml geneticin.
L1.2 recombinant cells expressing the receptor hCXCR3 were maintained in culture in RPMI 1640 (invitrogen), 5% Foetal Bovine Serum (invitrogen), 2 mM glutamine(invitrogen), 50 u/ml penicillin/streptomycin (invitrogen), at 37° C.-5% CO2—in an H2O saturated incubator. In order to stimulate the expression of the receptor, cells were incubated overnight with 5 mM butyric acid (Sigma)
This mix of cells/compounds was then incubated at 37° C.-5% CO2—in an H2O saturated incubator during 30 minutes. Cells were then dispensed as a drop on each corresponding wells of the chemotaxis system. Cell migration was then induced at 37° C.-5% CO2—in an H2O incubator during 4 hours. Filters were then removed and cells that had migrated were transferred in a black plate (Costar). The plates were stored overnight at −80° C. Cell migration ratio was calculated using the cyquant dye (Molecular Probes-C7026).

[2] = molecular target: T1, CXCR3; assay: CXCR3 Ca2+ mobilization (FLIPR), stable hCXCR3-CHO cell line, I-TAC stimulated; design: host or cells: CHO cells stably expressing hCXCR3; conditions: hCXCR3-CHO cells, I-TAC 100 nM stimulated Ca2+ response; read-out: Ca-ITAC
Method in brief: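 CHO cells stably expressing hCXCR3, grown 18 hours after plating, loaded with calcium indicator dye 60 minutes; compounds equilibrated 20 minutes at room temperature. Fluorescence change evoked by 100 nM I-TAC read on FLIPR; activity expressed as percent of I-TAC response without compound (100%).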

[3] = molecular target: T1, CXCR3; assay: Chemotaxis assay ITAC (CXCL11), L1.2-CXCR3 cells; design: expressed in transfected cells; conditions: 1 nM CXCL11 (I-TAC), 4 hours
Protocol: as §1
L1.2-CXCR3 cells were grown for 24 hours at 0.5×10^6 cells/ml in chemotaxis medium containing 5 mM butyric acid (Sigma). Compounds were on one hand mixed with 1 nM of CXCL11 (I-TAC) in phenol-red free RPMI 1640 (invitrogen) supplemented with 5% fetal bovine serum in presence of 1% DMSO. The CXCL11/compounds mixture was then added to lower chambers of chemotaxis 96 well microplates (neuroprobe), and framed filters ([…] pore size) were put on top of the lower chambers. Compounds were on the other hand mixed with L1.2 CXCR3 cells and incubated in chemotaxis medium at 1.5×10^6 cells/ml in presence of 1% DMSO at 37° C., 5% CO2 for 30 minutes. Cells/compounds mixture was then added on top of the frame filters and migration was performed at 37° C., 5% CO2 for 4 hours. The number of migrated cells in the bottom chamber was determined using the CyQuant GR dye (Molecular Probe), according to the manufacturer.

| Structure (SMILES) | IC50 [1] [µM] | IC50 [2] [µM] | IC50 [3] [µM] |
| --- | --- | --- | --- |
| O=C(NCc1cccc(Cl)c1)c1ccc(CN(Cc2ccccc2)S(=O)(=O)c2ccc(Cl)cc2)cc1 [Example 1, 4-({benzyl[(4-chlorophenyl)sulfonyl]amino}methyl)-N-(3-chlorobenzyl)benzamide] | 1.29 | – | – |
| O=C(NC[C@@H]1CCCO1)c1ccc(CN(Cc2ccccc2)S(=O)(=O)c2ccc(Cl)cc2)cc1 [Example 3, 4-({benzyl[(4-chlorophenyl)sulfonyl]amino}methyl)-N-[(2S)-tetrahydrofuran-2-ylmethyl]benzamide] | 2.27 | – | – |
| O=C(NCCc1cccc([N+](=O)[O-])c1)c1ccc(CN(Cc2ccccc2)S(=O)(=O)c2ccc(Cl)cc2)cc1 [Example 4, 4-({benzyl[(4-chlorophenyl)sulfonyl]amino}methyl)-N-[2-(3-nitrophenyl)ethyl]benzamide] | 2.45 | – | – |
| COc1ccc(S(=O)(=O)N(Cc2ccc(C(=O)NCc3cccc(Cl)c3)cc2)Cc2cccnc2)cc1 [Example 9, N-(3-chlorobenzyl)-4-{[[(4-methoxyphenyl)sulfonyl](pyridin-3-ylmethyl)amino]methyl}benzamide] | 1.15 | – | – |
| COc1ccc(S(=O)(=O)NC(=O)c2ccc(CN(Cc3ccccn3)S(=O)(=O)c3ccc(Cl)cc3)cc2)cc1 [Example 14, 4-{[[(4-chlorophenyl)sulfonyl](pyridin-2-ylmethyl)amino]methyl}-N-[(4-methoxyphenyl)sulfonyl]benzamide] | 3.87 | – | – |
| O=C(NS(=O)(=O)Cc1cccc([N+](=O)[O-])c1)c1ccc(CN(Cc2ccccc2)S(=O)(=O)c2ccc(Cl)cc2)cc1 [Example 15, 4-({benzyl[(4-chlorophenyl)sulfonyl]amino}methyl)-N-[(3-nitrobenzyl)sulfonyl]benzamide] | 2.42 | – | – |
| O=S(=O)(c1ccc(Cl)cc1)N(Cc1ccc(-c2nnc(O)o2)cc1)Cc1ccccn1 [Example 19, 4-chloro-N-[4-(5-hydroxy-1,3,4-oxadiazol-2-yl)benzyl]-N-(pyridin-2-ylmethyl)benzene sulfonamide] | 0.695 | – | – |
| O=S(=O)(c1ccc(Cl)cc1)N(Cc1ccc(-c2nnn[nH]2)cc1)Cc1ccccc1F [Example 20, 4-chloro-N-(2-fluorobenzyl)-N-[4-(1H-tetrazol-5-yl)benzyl]benzene sulfonamide] | 0.47 | – | – |
| O=S(=O)(c1ccc(Cl)cc1)N(Cc1ccc(-c2nnn[nH]2)cc1)Cc1cccc(Cl)c1 [Example 21, 4-chloro-N-(3-chlorobenzyl)-N-[4-(1H-tetrazol-5-yl)benzyl]benzenesulfonamide] | 1.29 | – | – |
| O=S(=O)(c1ccc(Cl)cc1)N(Cc1ccc(F)cc1)Cc1ccc(-c2nnn[nH]2)cc1 [Example 22, 4-chloro-N-(4-fluorobenzyl)-N-[4-(1H-tetrazol-5-yl)benzyl]benzenesulfonamide] | 2.56 | – | – |
| COc1cccc(CN(Cc2ccc(-c3nnn[nH]3)cc2)S(=O)(=O)c2ccc(Cl)cc2)c1 [Example 23, 4-chloro-N-(3-methoxybenzyl)-N-[4-(1H-tetrazol-5-yl)benzyl]benzene sulfonamide] | 1.46 | – | – |
| COc1ccc(CN(Cc2ccc(-c3nnn[nH]3)cc2)S(=O)(=O)c2ccc(Cl)cc2)cc1 [Example 24, 4-Chloro-N-(4-methoxy-benzyl)-N-[4-(1H-tetrazol-5-yl)-benzyl]-benzenesulfonamide] | 0.885 | – | – |
| O=S(=O)(c1ccc(Cl)cc1)N(Cc1ccc(Cl)cc1)Cc1ccc(-c2nnn[nH]2)cc1 [Example 25, 4-chloro-N-(4-chlorobenzyl)-N-[4-(1H-tetrazol-5-yl)benzyl]benzenesulfonamide] | 0.882 | – | – |
| O=C(NCC1CC1)c1ccc(CN(Cc2ccccc2F)S(=O)(=O)c2ccc(Cl)cc2)cc1 [Example 29, 4-{[(4-Chloro-benzenesulfonyl)-(2-fluoro-benzyl)-amino]-methyl}-N-cyclopropyl methyl benzamide] | 0.51 | 1 | – |
| O=C(NCC1CC1)c1ccc(CN(Cc2ccccc2)S(=O)(=O)c2ccc(Cl)nc2)cc1 [Example 37, 4-{[benzyl({[2-chloropyridine)l]sulfonyl)amino]methyl}-N(cyclopropylmethyl)benzamide] | 0.328 | 3.35 | – |
| N#Cc1ccc(S(=O)(=O)N(Cc2ccc(C(=O)NCC3CC3)cc2)Cc2ccccn2)cc1 [Example 43] | 0.36 | 4.75 | – |
| N#Cc1ccc(S(=O)(=O)N(Cc2ccc(-c3nnn[nH]3)cc2)Cc2ccccn2)cc1 [Example 47, 4-cyano-N-(pyridin-2-ylmethyl)-N-[4-(2H-tetrazol-5-yl)benzyl]benzenesulfonamide] | 0.233 | 1.16 | – |
| O=C(NS(=O)(=O)Cc1cccc([N+](=O)[O-])c1)c1ccc(CN(Cc2ccccn2)S(=O)(=O)c2ccc(Cl)cc2)cc1 [Example 50, N-(3-nitrophenylmethanesulfonyl)-4-{[[(4-chlorophenyl)sulfonyl](pyridin-2-yl-methyl)amino]methyl}benzamide] | 0.207 | 0.175 | – |
| O=C(NS(=O)(=O)c1cccc(F)c1)c1ccc(CN(Cc2ccccn2)S(=O)(=O)c2ccc(Cl)cc2)cc1 [Example 51, N-(3-fluorobenzenesulfonyl)-4-{[[(4-chlorophenyl)sulfonyl](pyridin-2-yl-methyl)amino]methyl}benzamide] | 0.339 | 0.131 | – |
| CS(=O)(=O)CCCS(=O)(=O)NC(=O)c1ccc(CN(Cc2ccccn2)S(=O)(=O)c2ccc(Cl)cc2)cc1 [Example 53, N-(1-methylsulfonyl-3-propylsulfonyl)-4-{[[(4-chlorophenyl)sulfonyl](pyridin-2-yl-methyl)amino]methyl}benzamide] | 1.32 | 1.7 | – |
| Cc1noc(C)c1CN(Cc1ccc(-c2nnn[nH]2)cc1)S(=O)(=O)c1ccc(Cl)cc1 [Example 58, 4-chloro-N-[(3,5-dimethylisoxazol-4-yl)methyl]-N-[4-(2H-tetrazol-5-yl)benzyl]benzene sulfonamide] | 1.43 | – | – |
| O=S(=O)(c1ccc(Cl)cc1)N(Cc1ccc(-c2nnn[nH]2)cc1)Cc1ncco1 [Example 59, 4-chloro-N-(1,3-oxazol-2-ylmethyl)-N-[4-(2H-tetrazol-5-yl)benzyl]benzene sulfonamide] | 3.67 | – | – |
| O=C(Nc1ccc(CN(Cc2ccccn2)S(=O)(=O)c2ccc(Cl)cc2)cc1)C(O)c1ccccc1 (stereo not drawn) [Example 170] | – | 0.4 | 0.05 |
| O=S(=O)(c1ccc(Cl)cc1)N(Cc1ccc(-c2nnn[nH]2)cc1)C1CCc2cc(Cl)ccc21 (stereo not drawn) [Example 179] | – | 0.35 | 8.86 |
| NC(C(=O)Nc1ccc(CN(Cc2ccccn2)S(=O)(=O)c2ccc(Cl)cc2)cc1)c1ccccc1 (stereo not drawn) [Example 181] | – | 0.15 | 0.094 |
| CC(=O)NC(C(=O)Nc1ccc(CN(Cc2ccccn2)S(=O)(=O)c2ccc(Cl)cc2)cc1)c1ccccc1 (stereo not drawn) [Example 185] | – | 0.3 | 0.03 |
| CCOc1ccc(S(=O)(=O)N(Cc2ccc(C(=O)OC)c(OC)c2)Cc2ccccn2)cc1 [Example 188] | – | 10.5 | 3.8 |
| CCOc1ccc(S(=O)(=O)N(Cc2ccc(C(=O)NC3(c4ccccc4)CC3)c(OC)c2)Cc2ccccn2)cc1 [Example 189] | – | 2 | 0.28 |
| N#Cc1cccc(CN(Cc2ccccn2)S(=O)(=O)c2ccc(Cl)cc2)c1 [Example 195] | – | 4.2 | 6.81 |
| COC(=O)[C@@H](NC(=O)c1ccc(CN(Cc2ccccn2)S(=O)(=O)c2ccc(Cl)cc2)cc1)c1ccccc1 [Example 342] | – | 0.8 | 0.054 |
